Experimental findings from patent US7569724B2, “Carbamic acid compounds comprising an amide linkage as HDAC inhibitors” (Topotarget UK Limited, priority 2000, dated 2009) are described below.

One data set relates to HDAC (HeLa cell extract). Put plainly: Primary assay: deacetylase activity, HeLa cell extract as source of HDAC. Type of data set: biochemical, human. The conditions noted are these: HeLa cell extract; for HDAC Inhibition HeLa, percent / percent HDAC inhibition at the stated concentration: @ 500 nM. The source says: Briefly, this assay relies on the release of radioactive acetate from a radioactively labelled histone fragment by the action of HDAC enzyme. Test compounds, which inhibit HDAC, reduce the yield of radioactive acetate. Signal (e.g., scintillation counts) measured in the presence and absence of a test compound provide an indication of that compound's ability to inhibit HDAC activity. Decreased activity indicates increased inhibition by the test compound.
The histone fragment was an N-terminal sequence from histone H4, and it was labelled with radioactively labelled acetyl groups using tritiated acetylcoenzyme A (coA) in conjunction with an enzyme which is the histone acetyltransferase domain of the transcriptional coactivator p300. […] The acetylated peptide was then separated from free acetyl coA by size exclusion chromatography on Sephadex G-15 (Sigma G-15-120), using distilled H2O as the mobile phase.
After purification of the radiolabelled histone fragment, it was incubated with a source of HDAC (e.g., an extract of HeLa cells (a rich source of HDAC), recombinantly produced HDAC1 or HDAC2) and any released acetate was extracted into an organic phase and quantitatively determined using scintillation counting. By including a test compound with the source of HDAC, that compound's ability to inhibit the HDAC was determined.
The HeLa cell extract was made from HeLa cells (ATCC Ref. No. CCL-2) by freeze-thawing three times in 60 mM TrisCl pH 8.0, 450 mM NaCl, 30% glycerol. Two cell volumes of extraction buffer were used, and particulate material was centrifuged out (20800 g, 4° C., 10 min). The supernatant extract having deacetylase activity was aliquotted and frozen for storage.
A source of HDAC (e.g., 2 μL of crude HeLa extract, 5 μL of HDAC1 or HDAC2; in elution buffer, as above) was incubated with 3 μL of radioactively labelled peptide along with appropriate dilutions of candidate compounds (1.5 μL) in a total volume of 150 μL of buffer (20 mM Tris pH 7.4, 10% glycerol). The reaction was carried out at 37° C. for one hour, after which the reaction was stopped by adding 20 μL of 1 M HCl/0.4 M sodium acetate. […] Radioactivity was measured using a Tri-Carb 2100TR Liquid Scintillation Analyzer (Packard).
Percent activity (% activity) for each test compound was calculated as: % activity={(S^C−B)/(S^o−B)}×100 wherein S^C denotes signal measured in the presence of enzyme and the compound being tested, S^o denotes signal measured in the presence of enzyme but in the absence of the compound being tested, and B denotes the background signal measured in the absence of both enzyme and compound being tested.

For the next data set, the system named is HeLa cells. Put plainly: Secondary assay: cell proliferation WST-1, HeLa. The conditions noted are these: Homo sapiens, 48 h, read-out: Cell Proliferation Inhibition WST-1 (IC50 unless otherwise specified) HeLa. In kind it is cell-based. On the procedure:
Compounds with HDAC inhibition activity, as determined using the primary assay, were subsequently evaluated using secondary cell-based assays. The following cell lines were used:
HeLa—Human cervical adenocarcinoma cell line (ATCC ref. No. CCL-2).
Cells were plated in 96-well plates at 3-10×10^3 cells/well in 100 μL of culture medium. The following day, different concentrations of candidate compounds were added and the cells incubated at 37° C. for 48 h. Subsequently, 10 μL/well of WST-1 reagent was added and the cells reincubated for 1 hour. After the incubation time, absorbance was measured.
WST-1 is a tetrazolium salt which is cleaved to formazan dye by cellular enzymes. An expansion in the number of viable cells results in an increase in the overall activity of mitochondrial dehydrogenases in the sample. This augmentation in the enzyme activity leads to an increase in the amount of formazan dye formed, which directly correlates to the number of metabolically active cells in the culture. The formazan dye produced is quantified by a scanning multiwell spectrophotometer by measuring the absorbance of the dye solution at 450 nm wavelength (reference wavelength 690 nm).
Percent activity (% activity) in reducing the number of viable cells was calculated for each test compound as: % activity={(S^C−B)/(S^o−B)}×100 wherein S^C denotes signal measured in the presence of the compound being tested, S^o denotes signal measured in the absence of the compound being tested, and B denotes the background signal measured in blank wells containing medium only.
IC50 values were calculated using the software package Prism 3.0 (GraphPad software Inc., San Diego, Calif.), setting top value at 100 and bottom value at 0.
For orientation: Tetrazolium assays rely on reduction of a dye to a coloured formazan, in cell work by metabolically active cells.

The mark [1] stands for this setting: read-out: HDAC Inhibition (IC50 unless otherwise specified) HeLa.
Setting [2] is: comparative tables, read-out: HeLa IC50.

Where a name gives a salt, the structure may show the parent alone. Read-outs that look alike come from different tables or passages of the source.

For the compound `O=C(/C=C/c1ccncc1)NCCCCCC(=O)NO` (as salt: oxalate) [PX106521, (E)-N-(5-Hydroxycarbamoylpentyl)-3-pyridin-4-yl-acrylamide oxalate], the melting point lay within 168 to 170 °C.
`O=C(/C=C/c1ccccn1)NCCCCCC(=O)NO` (as salt: oxalate) [PX106528, (E)-N-(5-Hydroxycarbamoylpentyl)-3-pyridin-2-yl-acrylamide oxalate]: the melting point fell in the range of 126 to 128 °C.
For `O=C(/C=C/c1cccnc1)NCCCCCC(=O)NO` (as salt: oxalate) [PX116231, E-N-(5-Hydroxycarbamoyl-pentyl)-3-pyridin-3-yl-acrylamide oxalate], the melting point lay in the range of 157 to 159 °C.
Consider `O=C(CCCCCNC(=O)CCc1ccco1)NO` [PX105827, 6-(3-Furan-2-yl-propionylamino)-hexanoic acid hydroxyamide], for which the melting point was in the range of 127 to 128 °C. For the same compound, the “HDAC Inhibition HeLa, percent” value in the data set with HDAC (HeLa cell extract) amounted to 34% @ 500 nM. Besides, the “percent HDAC inhibition at the stated concentration” value with HDAC (HeLa cell extract) (comparative tables) was determined as 34% @ 500 nM.
In the case of `O=C(CCCCCNC(=O)Cc1ccc(-c2ccccc2)cc1)NO` [PX106488, 6-(2-Biphenyl-4-yl-acetylamino)-hexanoic acid hydroxyamide], the melting point lay within 226 to 227 °C. The “HDAC Inhibition HeLa, percent” value in the data set with HDAC (HeLa cell extract) was found to be 51% @ 500 nM. The “percent HDAC inhibition at the stated concentration” value with HDAC (HeLa cell extract) (comparative tables) was 51% @ 500 nM.
`O=C(CCCCNC(=O)c1ccc2ccccc2c1)NO` [PX106492, Naphthalene-2-carboxylic acid (4-hydroxycarbamoyl-butyl)-amide] came in with a melting point of 155 to 156 °C. Besides, in the data set on HDAC (HeLa cell extract), the “HDAC Inhibition HeLa, percent” value stood at 42% @ 500 nM.
In the case of `O=C(CCCCCNC(=O)c1ccc(I)cc1)NO` [PX106494, N-(5-Hydroxycarbamoylpentyl)-4-iodobenzamide], the melting point is 168 to 169 °C. Also, the IC50 in the data set with HDAC (HeLa cell extract) (setting [1]) is 100 nM.
For `O=C(CCCCCNC(=O)c1ccc([N+](=O)[O-])cc1)NO` [PX106495, N-(5-Hydroxycarbamoylpentyl)-4-nitrobenzamide], the melting point was in the range of 139.5 to 141 °C. Moreover, the “HDAC Inhibition HeLa, percent” value with HDAC (HeLa cell extract) was 34% @ 500 nM.
Compound `N#Cc1ccc(C(=O)NCCCCCC(=O)NO)cc1` [PX106497, 4-Cyano-N-(5-hydroxycarbamoylpentyl)-benzamide] gave a melting point of 234 to 236 °C. The “HDAC Inhibition HeLa, percent” value with HDAC (HeLa cell extract) was determined as 30% @ 500 nM.
Turning to `O=C(CCCCCNC(=O)CCc1ccccc1)NO` [PX106516, 6-(3-Phenylpropionylamino)hexanoic acid hydroxyamide], the melting point is 107 °C. For the same compound, the “HDAC Inhibition HeLa, percent” value in the data set on HDAC (HeLa cell extract) came to 27% @ 500 nM.
Consider `O=C(/C=C/c1ccccc1)NCCCCCC(=O)NO` [PX106517, N-(5-Hydroxycarbamoylpentyl)-3-phenylacrylamide], for which the IC50 in the data set with HeLa cells was 470 nM; with HDAC (HeLa cell extract) (setting [1]), 83 nM; with HDAC (HeLa cell extract) (setting [2]) it was 83 nM.
Consider `O=C(/C=C/c1ccncc1)NCCCCCC(=O)NO` [PX106521, (E)-N-(5-Hydroxycarbamoylpentyl)-3-pyridin-4-yl-acrylamide oxalate], for which the IC50 with HeLa cells came to 46000 nM; in the data set with HDAC (HeLa cell extract) (setting [1]) it was 138 nM.
As for `COc1ccc(/C=C/C=C/C(=O)NCCCCCC(=O)NO)cc1` [PX106524, (2E,4E)-(4-Methoxyphenyl)penta-2,4-dienoic acid (5-hydroxycarbamoylpentyl)-amide], the melting point fell in the range of 152 to 154 °C. Further, the “HDAC Inhibition HeLa, percent” value with HDAC (HeLa cell extract) is listed as 57% @ 500 nM.
Take `O=C(CCCCCNC(=O)C/C=C/c1ccccc1)NO` [PX116211, (E)-N-[6-(Hydroxyamino)-6-oxohexyl]-4-phenyl-3-butenamide]: the melting point was in the range of 127 to 128 °C.
With `O=C(/C=C/c1cccc(NC(=O)CCCc2ccccc2)c1)NO` [PX116212, (E)-N-Hydroxy-3-{3-[(4-phenylbutanoyl)amino]phenyl}-2-propenamide], the melting point lay in the range of 152 to 153 °C. Further, the “HDAC Inhibition HeLa, percent” value with HDAC (HeLa cell extract) was determined as 72% @ 500 nM.
`COc1ccc(C(=O)NCCCCCC(=O)NO)cc1OC` [PX116213, N-[6-(Hydroxyamino)-6-oxohexyl]-3,4-dimethoxybenzamide] gave a melting point of 133 °C. The “HDAC Inhibition HeLa, percent” value in the data set with HDAC (HeLa cell extract) was determined as 48% @ 500 nM.
In turn, `O=C(CCCCCNC(=O)Cc1c[nH]c2ccccc12)NO` [PX116214, 6-(2-1H-lndol-3-yl-acetylamino)-hexanoic acid hydroxyamide] showed a melting point of 130 to 131.5 °C. Further, in the data set with HDAC (HeLa cell extract), the “HDAC Inhibition HeLa, percent” value came out at 35% @ 500 nM.
As for `O=C(CCCCCNC(=O)c1ccc(Br)cc1)NO` [PX116215, 4-Bromo-N-(5-hydroxycarbamoyl-pentyl)-benzamide], the melting point fell in the range of 164 to 166 °C. The “HDAC Inhibition HeLa, percent” value with HDAC (HeLa cell extract) is listed as 70% @ 500 nM.
`O=C(CCCCC(=O)NCCc1c[nH]c2ccccc12)NO` [PX116217, Hexanedioic acid hydroxyamide [2-(1H-indol-3-yl)-ethyl]-amide] gave a melting point of 121 to 122.5 °C. Moreover, the “HDAC Inhibition HeLa, percent” value in the data set on HDAC (HeLa cell extract) turned out to be 17% @ 500 nM.
With `O=C(CCCCCCC(=O)Nc1cccc2ccccc12)NO` [PX116218, Octanedioic acid hydroxyamide naphthalen-1-ylamide], the melting point was in the range of 115 to 116.5 °C. The IC50 in the data set with HDAC (HeLa cell extract) (setting [1]) is 33 nM.
Take `O=C(CCCCCCC(=O)NCCc1nc2ccccc2[nH]1)NO` [PX116241, N^1-[2-(1H-Benzimidazol-2-yl)ethyl]-N^8-hydroxyoctanediamide]: the IC50 in the data set with HeLa cells turned out to be 56000 nM. Also, in the data set on HDAC (HeLa cell extract), the “HDAC Inhibition HeLa, percent” value is on record as 39% @ 500 nM.
For the compound `O=C(/C=C/c1ccc(NC(=O)Cc2cccc3ccccc23)cc1)NO` [PX116244, (E)-N-Hydroxy-3-(4-{[2-(1-naphthyl)acetyl]amino}phenyl)-2-propenamide], the results for the IC50 in the data set with HeLa cells and in the data set on HDAC (HeLa cell extract) (setting [1]) were less than 310 nM and 22 nM, respectively.
As to `O=C(/C=C/c1ccc(-c2cc(C(F)(F)F)cc(C(F)(F)F)c2)o1)NCCCCCC(=O)NO` [PX117224, (E)-3-{5-[3,5-bis(trifluoromethyl)phenyl]-2-furyl}-N-[6-(hydroxyamino)-6-oxohexyl]2-propenamide], the IC50 in the data set with HeLa cells came to 26000 nM. In addition, in the data set on HDAC (HeLa cell extract), the “HDAC Inhibition HeLa, percent” value amounted to 81% @ 500 nM.
For `O=C(/C=C/C=C/c1cccc2ccccc12)NCCCCCC(=O)NO` [PX117237, (2E)(4E)-5-Naphthalen-1-yl-penta-2,4-dienoic acid (5-hydroxycarbamoylpentyl)amide], the figures for the IC50 in the data set on HeLa cells, with HDAC (HeLa cell extract) (setting [1]) and in the data set with HDAC (HeLa cell extract) (setting [2]) were 17000 nM, 63 nM and 63 nM, respectively.
With `Cn1cccc1/C=C/C(=O)NCCCCCC(=O)NO` [PX117239, E-3-(1-Methyl-1H-pyrrol-2-yl)-N-(5-hydroxycarbamoylpentyl)-acrylamide], the IC50 in the data set with HeLa cells was determined as 10000 nM. In addition, the “HDAC Inhibition HeLa, percent” value in the data set with HDAC (HeLa cell extract) is 85% @ 500 nM.
With `C/C(=C\C(=O)NCCCCCC(=O)NO)c1ccccc1` [PX117254, E-3-Phenylbut-2-enoic acid (5-hydroxycarbamoylpentyl)-amide], the results for the IC50 in the data set on HeLa cells and in the data set on HDAC (HeLa cell extract) (setting [1]) were 6600 nM and 40 nM, respectively.
With `O=C(/C=C/C=C/c1ccccc1Cl)NCCCCCC(=O)NO` [PX117255, (2E)(4E)-5-(2-Chlorophenyl)penta-2,4-dienoic acid (5-hydroxycarbamoylpentyl)amide], the IC50 in the data set with HeLa cells came out at 18000 nM; in the data set with HDAC (HeLa cell extract) (setting [1]), 50 nM.

Broadly, the melting point is the temperature, or range, at which the solid turns liquid.
